Patent publication US20160030522A1, “COMBINATION THERAPY TO IMPROVE SOFT TISSUE HEALING, FAT GRAFT HEALING, ENDOCHONDRAL BONE HEALING AND OSTEOINTEGRATION” (priority 2013, published 2016)

System: trephine defect
Assay: Bony ingrowth / regeneration in the trephine defect after systemic treatment of mice
Format: in vivo
Details: systemic administration
Procedure: Mice and Injury Model: All experiments are performed in accordance with the IACUC guidelines. C57BL/6J wild-type mice aged 8-12 weeks are purchased from Jackson Laboratories (Bar Harbor, Me.). Mice are randomized to receive one of #1) no injury; #2) an implant stud having a porous polyethylene-polypropylene coating placed in a defect in the distal femur. […] Treatment Groups: Mice in each of the 4 experimental groups are randomly assigned to receive once daily one of: #1) saline i.p. injection; #2) AMD3100 (10 mg/kg, i.p.; PLERIXAFOR®; Genzyme Corp., Cambridge, Mass.) injection; #3) Teriparatide (0.285 mcg/kg, i.p.; FORTEO®; Eli Lilly and Company, Indianapolis, Ind.); or #4) AMD3100 (10 mg/kg, i.p.; PLERIXAFOR®; Genzyme Corp., Cambridge, Mass.); and teriparatide (0.285 mcg/kg, i.p.; FORTEO®; Eli Lilly and Company, Indianapolis, Ind.). […] BM is flushed from mouse long bones using PBS/10% FBS/5% EDTA, as previously described. Mononuclear cells (MNCs) from the peripheral blood and BM are isolated by density gradient centrifugation using Histopaque 1083 (Sigma-Aldrich; St. Louis, Mo.). […] Adobe Photoshop CS3 is used to segment and quantify positive CD31 staining. The vascular density of mouse wounds is determined by quantifying the total area of CD31+ staining (red) per megapixel (1×106 pixels square area) of wound stained.

| SMILES | bony ingrowth / bony regeneration [%] |
| --- | --- |
| c1cc(CN2CCCNCCNCCCNCC2)ccc1CN1CCCNCCNCCCNCC1 [AMD3100] | 59.7 |
| CC[C@H](C)[C@H](NC(=O)[C@H](CCC(=O)O)NC(=O)[C@H](CO)NC(=O)[C@@H](NC(=O)[C@@H](N)CO)C(C)C)C(=O)N[C@@H](CCC(N)=O)C(=O)N[C@@H](CC(C)C)C(=O)N[C@@H](CCSC)C(=O)N[C@@H](Cc1cnc[nH]1)C(=O)N[C@@H](CC(N)=O)C(=O)N[C@@H](CC(C)C)C(=O)NCC(=O)N[C@@H](CCCCN)C(=O)N[C@@H](Cc1cnc[nH]1)C(=O)N[C@@H](CC(C)C)C(=O)N[C@@H](CC(N)=O)C(=O)N[C@@H](CO)C(=O)N[C@@H](CCSC)C(=O)N[C@@H](CCC(=O)O)C(=O)N[C@@H](CCCN=C(N)N)C(=O)N[C@H](C(=O)N[C@@H](CCC(=O)O)C(=O)N[C@@H](Cc1c[nH]c2ccccc12)C(=O)N[C@@H](CC(C)C)C(=O)N[C@@H](CCCN=C(N)N)C(=O)N[C@@H](CCCCN)C(=O)N[C@@H](CCCCN)C(=O)N[C@@H](CC(C)C)C(=O)N[C@@H](CCC(N)=O)C(=O)N[C@@H](CC(=O)O)C(=O)N[C@H](C(=O)N[C@@H](Cc1cnc[nH]1)C(=O)N[C@@H](CC(N)=O)C(=O)N[C@@H](Cc1ccccc1)C(=O)O)C(C)C)C(C)C [PTH] | 56 |
